In BigSolDB 2.1:

CC1(C)[C@@H](O)CC[C@]2(C)[C@H]3C(=O)C=C4[C@@H]5C[C@@](C)(C(=O)O)CC[C@]5(C)CC[C@@]4(C)[C@]3(C)CC[C@@H]12
Conditions | solubility (mole fraction)
in 1,4-dioxane, 288.15 K | 0.0269
in 1,4-dioxane, 293.15 K | 0.028
in 1,4-dioxane, 298.15 K | 0.0297
in 1,4-dioxane, 303.15 K | 0.0315
in 1,4-dioxane, 308.15 K | 0.0327
in 1,4-dioxane, 313.15 K | 0.0337
in 1,4-dioxane, 318.15 K | 0.0349
in 1,4-dioxane, 323.15 K | 0.036
in DMF, 278.15 K | 0.0467
in DMF, 283.15 K | 0.0474
in DMF, 288.15 K | 0.0515
in DMF, 293.15 K | 0.0552
in DMF, 298.15 K | 0.0576
in DMF, 303.15 K | 0.0598
in DMF, 308.15 K | 0.0643
in DMF, 313.15 K | 0.0678
in DMF, 318.15 K | 0.0716
in DMF, 323.15 K | 0.0763
in THF, 278.15 K | 0.0764
in THF, 283.15 K | 0.077
in THF, 288.15 K | 0.0774
in THF, 293.15 K | 0.078
in THF, 298.15 K | 0.0787
in THF, 303.15 K | 0.0794
in THF, 308.15 K | 0.0804
in THF, 313.15 K | 0.0815
in THF, 318.15 K | 0.0827
in THF, 323.15 K | 0.0842
in acetone, 278.15 K | 0.00321
in acetone, 283.15 K | 0.00347
in acetone, 288.65 K | 0.00365
in acetone, 293.15 K | 0.0038
in acetone, 298.15 K | 0.00414
in acetone, 303.15 K | 0.00438
in acetone, 308.15 K | 0.00468
in acetone, 313.15 K | 0.00495
in acetone, 318.15 K | 0.00543
in acetone, 323.15 K | 0.00598
in ethanol, 278.15 K | 0.0106
in ethanol, 283.15 K | 0.0112
in ethanol, 288.65 K | 0.0125
in ethanol, 293.15 K | 0.0132
in ethanol, 298.15 K | 0.0138
in ethanol, 303.15 K | 0.0143
in ethanol, 308.15 K | 0.0148
in ethanol, 313.15 K | 0.0152
in ethanol, 318.15 K | 0.0158
in ethanol, 323.15 K | 0.0168
in isobutyl acetate, 278.15 K | 0.00229
in isobutyl acetate, 283.15 K | 0.00232
in isobutyl acetate, 288.15 K | 0.00239
in isobutyl acetate, 293.15 K | 0.00242
in isobutyl acetate, 298.15 K | 0.00247
in isobutyl acetate, 303.15 K | 0.00256
in isobutyl acetate, 308.15 K | 0.00273
in isobutyl acetate, 313.15 K | 0.00278
in isobutyl acetate, 318.15 K | 0.00288
in isobutyl acetate, 323.15 K | 0.00314
in isopropanol, 278.15 K | 0.00857
in isopropanol, 283.15 K | 0.00946
in isopropanol, 288.65 K | 0.0114
in isopropanol, 293.15 K | 0.012
in isopropanol, 298.15 K | 0.0129
in isopropanol, 303.15 K | 0.0139
in isopropanol, 308.15 K | 0.0149
in isopropanol, 313.15 K | 0.0156
in isopropanol, 318.15 K | 0.0164
in isopropanol, 323.15 K | 0.0174
in methanol, 278.15 K | 0.00229
in methanol, 283.15 K | 0.00257
in methanol, 288.65 K | 0.00295
in methanol, 293.15 K | 0.00329
in methanol, 298.15 K | 0.00373
in methanol, 303.15 K | 0.00427
in methanol, 308.15 K | 0.00486
in methanol, 313.15 K | 0.00562
in methanol, 318.15 K | 0.00675
in methanol, 323.15 K | 0.00755
in methyl acetate, 278.15 K | 0.00182
in methyl acetate, 283.15 K | 0.00196
in methyl acetate, 288.15 K | 0.00203
in methyl acetate, 293.15 K | 0.00227
in methyl acetate, 298.15 K | 0.00244
in methyl acetate, 303.15 K | 0.00259
in methyl acetate, 308.15 K | 0.0027
in methyl acetate, 313.15 K | 0.00293
in methyl acetate, 318.15 K | 0.00319
in methyl acetate, 323.15 K | 0.0034
in n-butyl acetate, 278.15 K | 0.00286
in n-butyl acetate, 283.15 K | 0.00297
in n-butyl acetate, 288.15 K | 0.00315
in n-butyl acetate, 293.15 K | 0.00327
in n-butyl acetate, 298.15 K | 0.00333
in n-butyl acetate, 303.15 K | 0.00344
in n-butyl acetate, 308.15 K | 0.0035
in n-butyl acetate, 313.15 K | 0.00354
in n-butyl acetate, 318.15 K | 0.00359
in n-butyl acetate, 323.15 K | 0.00364
in n-propanol, 278.15 K | 0.0131
in n-propanol, 283.15 K | 0.0146
in n-propanol, 288.65 K | 0.016
in n-propanol, 293.15 K | 0.0174
in n-propanol, 298.15 K | 0.0186
in n-propanol, 303.15 K | 0.0194
in n-propanol, 308.15 K | 0.0206
in n-propanol, 313.15 K | 0.0218
in n-propanol, 318.15 K | 0.0223
in n-propanol, 323.15 K | 0.023
in n-propyl acetate, 278.15 K | 0.00157
in n-propyl acetate, 283.15 K | 0.00176
in n-propyl acetate, 288.15 K | 0.00193
in n-propyl acetate, 293.15 K | 0.00211
in n-propyl acetate, 298.15 K | 0.00232
in n-propyl acetate, 303.15 K | 0.00245
in n-propyl acetate, 308.15 K | 0.00261
in n-propyl acetate, 313.15 K | 0.00273
in n-propyl acetate, 318.15 K | 0.00284
in n-propyl acetate, 323.15 K | 0.00295
